{"source": "patent US9221811B2", "about": "“Chromone derivative having osteogenesis promoting effect” (Daiichi Sankyo Company, Limited, priority 2012, dated 2015)", "system": "female F344 rats", "experiment": "Effect on bone density (oophorectomized rats, femur, DXA)", "format": "in vivo, rat", "details": "25 mg/kg orally once a day, six days a week, six weeks, Dunnett's test", "method": "Eight to 12 week old female F344 rats were purchased from Charles River Laboratories Japan, Inc. and used in the following experiment.\nThis test was conducted at N=8. Rats were anesthetized by the intraperitoneal administration of 40 mg/kg of Somnopentyl (purchased from Kyoritsu Seiyaku Corporation), followed by oophorectomy.\nFrom the day after surgery, a control group received a 0.5% methyl cellulose solution (purchased from Wako Pure Chemical Industries, Ltd., Cat. No. 133-14255) alone, whereas another group received a suspension of the test compound in this solution (0.5% methyl cellulose solution), for the test.\nThe administration was performed orally once a day, six days a week. Six weeks after administration, the rats were euthanized by removal of whole blood from the lower abdominal aorta under Somnopentyl anesthesia, and the left and right femur was excised.\nAfter removal of soft tissues, the bone density of the femur thus excised was measured (apparatus: DXA apparatus DCS-600R manufactured by Aloka Co., Ltd.). The bone density was assessed in the whole femur as well as in three equal sections of the whole femur, namely the proximal end, the shaft, and the distal end.\nThe Dunnett's test was used in certification."}
{"smiles": "COCC(=O)N1CCC(c2oc3c(C)c(O)ccc3c(=O)c2C)CC1", "note": "[Example 11, 7-Hydroxy-2-[1-(methoxyacetyl)piperidin-4-yl]-3,8-dimethyl-4H-chromen-4-one]", "values": [{"measurement": "bone density of the femur compared with the control group", "value": "significantly increased the bone density"}]}
